Laboratory results as given in US11076595B2, “1-(n,n-disubstituted carbamoyl) 4-(substituted sulfonyl)triazolin-5-one derivative, 4-(n,n-disubstituted carbamoyl) 1-(substituted sulfonyl)triazolin-5-one derivative, and herbicide containing said derivative as active ingredient” (HOKKO CHEMICAL INDUSTRY CO., LTD., priority 2017, dated 2021).

Tests used:
[1] = system: Lindernia pyxidaria; experiment: Test Example 1: herbicidal effect test by soil treatment in paddy field; type: in vivo; details: 120 g/10a, paddy soil treatment just after sowing, 14 days after treatment
How it was run: (§1)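 Seeds (30 per species) are sown 0–1 cm deep in puddled, fertilized paddy soil, then flooded to about 3 cm. Water-diluted emulsifiable concentrate is dripped in at once, giving 120 g active ingredient per 10 are. Plants grow 14 days in a glass greenhouse before dry weights are compared with untreated.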

[2] = system: Monochoria vaginalis; experiment: as above; type: in vivo; details: 120 g/10a, paddy soil treatment just after sowing, 14 days after treatment
How it was run: as §1

[3] = system: Echinochloa crus-galli; experiment: as above; type: in vivo; details: 120 g/10a, paddy soil treatment just after sowing, 14 days after treatment
How it was run: as §1

[4] = system: Scirpus juncoides; experiment: as above; type: in vivo; details: 120 g/10a, paddy soil treatment just after sowing, 14 days after treatment
How it was run: as §1

[5] = system: Amaranthus viridis; experiment: Test Example 4: herbicidal effect test by foliage treatment in upland field; type: in vivo; details: upland field foliage treatment 7 days after sowing; 120 g/10a; evaluated 14 days after treatment
How it was run: (§2)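 Suppression rate (%) derives from mean plant dry weight in treated versus untreated plots, measured 14 days after spraying, with two replications per plot. The emulsifiable concentrate was applied 7 days after sowing at 120 g active ingredient per 10 are.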

[6] = system: crabgrass; experiment: as above; type: in vivo; details: upland field foliage treatment 7 days after sowing; 120 g/10a; evaluated 14 days after treatment
How it was run: as §2

[7] = system: Chenopodium album; experiment: as above; type: in vivo; details: upland field foliage treatment 7 days after sowing; 120 g/10a; evaluated 14 days after treatment
How it was run: as §2

[8] = system: Echinochloa crus-galli; experiment: as above; type: in vivo; details: upland field foliage treatment 7 days after sowing; 120 g/10a; evaluated 14 days after treatment
How it was run: as §2

[9] = system: Lindernia pyxidaria; experiment: Test Example 2: herbicidal effect test by treatment during growing period in paddy field; type: in vivo; details: treatment 7 days after sowing, 120 g/10a, evaluated 14 days after treatment
How it was run: (§3)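 Paddy soil in flooded pots (~3 cm water), 30 seeds per species sown 0–1 cm deep, greenhouse. Emulsifiable concentrate diluted in water and dripped into the water 7 days after sowing at 120 g a.i. per 10 are. Suppression (%) from dry weight vs untreated, 14 days post-treatment, two replicates.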

[10] = system: Monochoria vaginalis; experiment: as above; type: in vivo; details: treatment 7 days after sowing, 120 g/10a, evaluated 14 days after treatment
How it was run: as §3

[11] = system: Echinochloa crus-galli; experiment: as above; type: in vivo; details: treatment 7 days after sowing, 120 g/10a, evaluated 14 days after treatment
How it was run: as §3

[12] = system: Scirpus juncoides; experiment: as above; type: in vivo; details: treatment 7 days after sowing, 120 g/10a, evaluated 14 days after treatment
How it was run: as §3

[13] = system: Amaranthus viridis; experiment: Test Example 3: herbicidal effect test by soil treatment in upland field; type: in vivo; details: upland field soil treatment 1 day after sowing; 120 g/10a; evaluated 14 days after treatment
How it was run: (§4)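 Pots of alluvial field soil sown with 20 seeds per weed species; one day later emulsifiable concentrate diluted in water and sprayed on soil surface at 100 L per 10 are, 120 g active ingredient per 10 are. Suppression rate (%) from dry weight versus untreated plots after 14 days, two replicates.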

[14] = system: crabgrass; experiment: as above; type: in vivo; details: upland field soil treatment 1 day after sowing; 120 g/10a; evaluated 14 days after treatment
How it was run: as §4

[15] = system: Chenopodium album; experiment: as above; type: in vivo; details: upland field soil treatment 1 day after sowing; 120 g/10a; evaluated 14 days after treatment
How it was run: as §4

[16] = system: Echinochloa crus-galli; experiment: as above; type: in vivo; details: upland field soil treatment 1 day after sowing; 120 g/10a; evaluated 14 days after treatment
How it was run: as §4

CCN(CC)C(=O)n1ncn(S(=O)(=O)Cc2ccccc2)c1=O [Compound 1-968]
115.8 to 118.6 °C: melting point

CCN(CC)C(=O)n1ncn(S(C)(=O)=O)c1=O [Compound 1-1]
81.7 to 85.3 °C: melting point

CC(C)N(C(=O)n1ncn(S(=O)(=O)C2CC2)c1=O)c1ccc(F)cc1F [Compound 1-150, 4-cyclopropylsulfonyl-N-(2,4-difluorophenyl)-N-isopropyl-5-oxo-1,2,4-triazole-1-carboxamide]
80%: herbicidal effect (weed suppression rate), Chenopodium album [7] | herbicidal effect (weed suppression rate), Echinochloa crus-galli [8]
144 to 146 °C: melting point
90%: herbicidal effect (weed suppression rate), Amaranthus viridis [5] | herbicidal effect (weed suppression rate), Crabgrass [6] | weed suppression rate, Lindemia pyxidaria [9] | weed suppression rate, Monochoria vaginalis [10] | weed suppression rate, Scirpus juncoides [12] | herbicidal effect (weed suppression rate), Amaranthus viridis [13]
100%: weed suppression rate, Lindemia pyxidaria [1] | weed suppression rate, Monochoria vaginalis [2] | weed suppression rate, Echinochloa crus-galli [3] | weed suppression rate, Scirpus juncoides [4] | weed suppression rate, Echinochloa crus-galli [11] | herbicidal effect (weed suppression rate), Crabgrass [14] | herbicidal effect (weed suppression rate), Chenopodium album [15] | herbicidal effect (weed suppression rate), Echinochloa crus-galli [16]

CC(C)N(C(=O)n1ncn(S(=O)(=O)C(C)C)c1=O)c1ccccc1 [Compound 1-54]
90%: weed suppression rate, Echinochloa crus-galli [3] | weed suppression rate, Scirpus juncoides [4] | herbicidal effect (weed suppression rate), Amaranthus viridis [5] | herbicidal effect (weed suppression rate), Crabgrass [6] | weed suppression rate, Echinochloa crus-galli [11] | weed suppression rate, Scirpus juncoides [12]
80%: weed suppression rate, Lindemia pyxidaria [1] | weed suppression rate, Monochoria vaginalis [2] | herbicidal effect (weed suppression rate), Chenopodium album [7] | herbicidal effect (weed suppression rate), Echinochloa crus-galli [8] | weed suppression rate, Lindemia pyxidaria [9] | weed suppression rate, Monochoria vaginalis [10]
92 to 94 °C: melting point

CC(C)N(C(=O)n1ncn(S(=O)(=O)C2CC2)c1=O)c1ccccc1 [Compound 1-168]
90%: weed suppression rate, Echinochloa crus-galli [3] | weed suppression rate, Scirpus juncoides [4] | weed suppression rate, Echinochloa crus-galli [11] | weed suppression rate, Scirpus juncoides [12]
102 to 104 °C: melting point
80%: weed suppression rate, Lindemia pyxidaria [1] | weed suppression rate, Monochoria vaginalis [2] | weed suppression rate, Lindemia pyxidaria [9] | weed suppression rate, Monochoria vaginalis [10]

CC(C)N(C(=O)n1ncn(S(=O)(=O)C2CCC2)c1=O)c1ccc(F)cc1F [Compound 1-269]
90%: weed suppression rate, Scirpus juncoides [4] | herbicidal effect (weed suppression rate), Amaranthus viridis [5] | herbicidal effect (weed suppression rate), Crabgrass [6] | weed suppression rate, Monochoria vaginalis [10] | weed suppression rate, Scirpus juncoides [12] | herbicidal effect (weed suppression rate), Amaranthus viridis [13] | herbicidal effect (weed suppression rate), Crabgrass [14] | herbicidal effect (weed suppression rate), Chenopodium album [15] | herbicidal effect (weed suppression rate), Echinochloa crus-galli [16]
100%: weed suppression rate, Lindemia pyxidaria [1] | weed suppression rate, Monochoria vaginalis [2] | weed suppression rate, Echinochloa crus-galli [3] | weed suppression rate, Lindemia pyxidaria [9] | weed suppression rate, Echinochloa crus-galli [11]
80%: herbicidal effect (weed suppression rate), Chenopodium album [7] | herbicidal effect (weed suppression rate), Echinochloa crus-galli [8]

CC(C)N(C(=O)n1ncn(S(=O)(=O)C2CC2)c1=O)c1ccc(Cl)cn1 [Compound 1-244]
40%: herbicidal effect (weed suppression rate), Chenopodium album [7] | herbicidal effect (weed suppression rate), Chenopodium album [15]
80%: herbicidal effect (weed suppression rate), Echinochloa crus-galli [16]
100%: weed suppression rate, Lindemia pyxidaria [1] | weed suppression rate, Echinochloa crus-galli [3] | weed suppression rate, Lindemia pyxidaria [9] | weed suppression rate, Echinochloa crus-galli [11]
50%: herbicidal effect (weed suppression rate), Amaranthus viridis [13]
90%: weed suppression rate, Monochoria vaginalis [2] | weed suppression rate, Scirpus juncoides [4] | herbicidal effect (weed suppression rate), Crabgrass [6] | herbicidal effect (weed suppression rate), Echinochloa crus-galli [8] | weed suppression rate, Monochoria vaginalis [10] | weed suppression rate, Scirpus juncoides [12] | herbicidal effect (weed suppression rate), Crabgrass [14]
0%: herbicidal effect (weed suppression rate), Amaranthus viridis [5]

CC(C)N(C(=O)n1ncn(S(=O)(=O)C2CCCCC2)c1=O)c1ccccc1 [Compound 1-295]
90%: weed suppression rate, Echinochloa crus-galli [3] | weed suppression rate, Scirpus juncoides [4] | herbicidal effect (weed suppression rate), Amaranthus viridis [5] | herbicidal effect (weed suppression rate), Crabgrass [6] | weed suppression rate, Echinochloa crus-galli [11] | weed suppression rate, Scirpus juncoides [12] | herbicidal effect (weed suppression rate), Amaranthus viridis [13] | herbicidal effect (weed suppression rate), Crabgrass [14]
80%: weed suppression rate, Lindemia pyxidaria [1] | weed suppression rate, Monochoria vaginalis [2] | herbicidal effect (weed suppression rate), Chenopodium album [7] | herbicidal effect (weed suppression rate), Echinochloa crus-galli [8] | weed suppression rate, Lindemia pyxidaria [9] | weed suppression rate, Monochoria vaginalis [10] | herbicidal effect (weed suppression rate), Chenopodium album [15] | herbicidal effect (weed suppression rate), Echinochloa crus-galli [16]

CC(C)N(C(=O)n1ncn(S(=O)(=O)C2CCCCC2)c1=O)c1c(F)cccc1F [Compound 1-308]
80%: weed suppression rate, Monochoria vaginalis [2]
100%: weed suppression rate, Lindemia pyxidaria [1] | weed suppression rate, Echinochloa crus-galli [3] | weed suppression rate, Scirpus juncoides [4] | weed suppression rate, Monochoria vaginalis [10] | weed suppression rate, Echinochloa crus-galli [11] | weed suppression rate, Scirpus juncoides [12]
60%: herbicidal effect (weed suppression rate), Amaranthus viridis [5]
40%: herbicidal effect (weed suppression rate), Chenopodium album [7] | herbicidal effect (weed suppression rate), Amaranthus viridis [13] | herbicidal effect (weed suppression rate), Chenopodium album [15]
90%: herbicidal effect (weed suppression rate), Crabgrass [6] | herbicidal effect (weed suppression rate), Echinochloa crus-galli [8] | weed suppression rate, Lindemia pyxidaria [9] | herbicidal effect (weed suppression rate), Crabgrass [14] | herbicidal effect (weed suppression rate), Echinochloa crus-galli [16]

CC(C)N(C(=O)n1ncn(S(=O)(=O)C2CCCCC2)c1=O)c1ccc(F)cc1Cl [Compound 1-313]
90%: weed suppression rate, Echinochloa crus-galli [3] | weed suppression rate, Scirpus juncoides [4] | herbicidal effect (weed suppression rate), Amaranthus viridis [5] | herbicidal effect (weed suppression rate), Crabgrass [6] | weed suppression rate, Echinochloa crus-galli [11] | weed suppression rate, Scirpus juncoides [12] | herbicidal effect (weed suppression rate), Amaranthus viridis [13] | herbicidal effect (weed suppression rate), Crabgrass [14]
80%: weed suppression rate, Lindemia pyxidaria [1] | weed suppression rate, Monochoria vaginalis [2] | herbicidal effect (weed suppression rate), Chenopodium album [7] | herbicidal effect (weed suppression rate), Echinochloa crus-galli [8] | weed suppression rate, Lindemia pyxidaria [9] | weed suppression rate, Monochoria vaginalis [10] | herbicidal effect (weed suppression rate), Chenopodium album [15] | herbicidal effect (weed suppression rate), Echinochloa crus-galli [16]

Cc1nn(C(=O)N(c2ccc(F)cc2F)C(C)C)c(=O)n1S(=O)(=O)C1CC1 [Compound 1-257]
90%: weed suppression rate, Echinochloa crus-galli [3] | weed suppression rate, Scirpus juncoides [4] | herbicidal effect (weed suppression rate), Amaranthus viridis [5] | herbicidal effect (weed suppression rate), Crabgrass [6] | weed suppression rate, Echinochloa crus-galli [11] | weed suppression rate, Scirpus juncoides [12] | herbicidal effect (weed suppression rate), Amaranthus viridis [13] | herbicidal effect (weed suppression rate), Crabgrass [14]
80%: weed suppression rate, Lindemia pyxidaria [1] | weed suppression rate, Monochoria vaginalis [2] | herbicidal effect (weed suppression rate), Chenopodium album [7] | herbicidal effect (weed suppression rate), Echinochloa crus-galli [8] | weed suppression rate, Lindemia pyxidaria [9] | weed suppression rate, Monochoria vaginalis [10] | herbicidal effect (weed suppression rate), Chenopodium album [15] | herbicidal effect (weed suppression rate), Echinochloa crus-galli [16]
